US20160074480A1, “INNOVATIVE METHODS OF TREATMENTING TUBERCULOSIS” (priority 2015, published 2016)
Read-outs that look alike come from different tables or passages of the source.

What was measured:
[1] = test system: tuberculosis infection; details: cited from earlier work; for effect on tuberculosis infection: alone at 20 mg/kg per day; for TB lesion in the spleen compared with pyrazinamide alone / bacteria in the lungs compared with pyrazinamide alone: simultaneous administration with pyrazinamide
[2] = in vivo; cited from earlier work
[3] = test system: TB bacteria; details: cited from earlier work
[4] = test system: TB bacteria; details: cited from earlier work; remark: listed apart in the source
[5] = biological target: TB proteasome (Mycobacterium tuberculosis, UniProt P9WHT9); details: Lin et al 2009; cited from earlier work
TB proteasome, sequence (P9WHT9 58-291): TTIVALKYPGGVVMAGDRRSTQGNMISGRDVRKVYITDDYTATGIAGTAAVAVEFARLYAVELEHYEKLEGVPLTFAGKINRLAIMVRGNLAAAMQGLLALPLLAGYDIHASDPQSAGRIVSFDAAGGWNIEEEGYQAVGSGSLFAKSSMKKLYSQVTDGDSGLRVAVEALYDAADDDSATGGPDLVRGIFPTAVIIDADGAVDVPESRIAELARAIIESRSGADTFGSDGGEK
TB proteasome, sequence (P9WHU1 whole entry partner): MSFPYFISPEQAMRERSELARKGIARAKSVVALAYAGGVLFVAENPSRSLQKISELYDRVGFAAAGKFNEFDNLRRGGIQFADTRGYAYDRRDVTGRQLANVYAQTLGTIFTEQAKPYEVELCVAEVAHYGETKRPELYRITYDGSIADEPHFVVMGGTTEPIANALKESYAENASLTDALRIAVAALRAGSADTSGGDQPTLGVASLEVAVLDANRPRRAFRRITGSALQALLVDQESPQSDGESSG

[6] = test system: monkey and human cells; details: cited from earlier work
[7] = low sustained systemic release; cited from earlier work
[8] = cited from earlier work
[9] = cited from earlier work; remark: listed apart in the source
[10] = test system: tuberculosis bacteria; details: treated for 3 days, versus untreated sample; cited from earlier work
[11] = test system: radiation resistant breast cancer cells; details: cells pre-loaded with iron after incubation with holotransferrin, cited from earlier work
[12] = test system: malaria; details: 3 grams (about 50 mg/kg) over a 3 to 5 day period; cited from earlier work
[13] = intravenous, doses from 5 to 50 grams or higher per day
[14] = test system: tuberculosis cultures; details: compared to the untreated cultures after three days; cited from earlier work
[15] = test system: M. tuberculosis; details: after 9 days; cited from earlier work
[16] = test system: endothelial dysfunction; details: 2,000 mg/day for two weeks; cited from earlier work
[17] = cited from earlier work; remark: listed apart in the source
[18] = test system: plasma C reactive protein (CRP); details: smokers; cited from earlier work
[19] = test system: M. tuberculosis; details: flow cytometry; cited from earlier work
[20] = test system: Methicillin resistant staphylococcus aureus; assay: Treatment of MRSA infected patients; details: with broad spectrum antibiotics, insulin induced hypoglycemia and hyperbaric therapy
[21] = test system: creatine kinase; details: compared with the placebo group; cited from earlier work
[22] = test system: mycobacterium tuberculosis; assay: Breast cancer patient with pulmonary TB given high dose Vitamin C; format: in vivo, human
Description: In the presence of above reductants, ferrous ions are produced by reduction of ferric ions (#2). One reductant known to drive the Fenton reaction is Vitamin C, also known as ascorbic acid. As a pro-oxidant, vitamin C can drive the Fenton reaction by reducing ferric ions to ferrous ions as shown in the above formula and FIG. 3. Most iron within the cell is bound within porphyrins and proteins, as ferric ions that are sparingly soluble and ferrous ions are very reactive as well as more soluble. To examine the role of iron concentration in vitamin C bactericidal activity, the concentrations of bound iron and reduced and oxidized free iron were measured in tuberculosis cultures treated with vitamin C. […] This increase in free iron levels was also the dose which peaked at day three. […] We treated a person has traveled to Southeast Asia and was diagnosed with left breast cancer. It was an early case with discrete lymph node metastasis. They have cough with blood tinged sputum, night sweats, and weight loss. […] By the time we made the TB diagnosis they were treated with high dose Vitamin C 10 to 25 grams in 500 ml normal saline every day for a total of 10 doses as an adjuvant therapy for cancer. They underwent local injection of anti-breast cancer chemotherapy therapeutic agents with insulin and local heat application with magnetic heat waves and hyperbaric therapy using soft air HBO chamber.
This person has traveled to Southeast Asia and was diagnosed with left breast cancer. It was an early case with discrete lymph node metastasis. They have cough with blood tinged sputum, night sweats, and weight loss. […] By the time we made the TB diagnosis they were treated with high dose Vitamin C 10 to 25 grams in 500 ml normal saline every day for a total of 10 doses as an adjuvant therapy for cancer. They underwent local injection of anti-breast cancer chemotherapy therapeutic agents with insulin and local heat application with magnetic heat waves and hyperbaric therapy using soft air HBO chamber.
After the lab came with mycobacterium tuberculosis, we wanted to see why the cough has gone with no sputum. […] We sent the sputum again, and came negative for mycobacterium tuberculosis after culture. This also made us to diagnose that the lesion in the lungs was not a metastatic breast cancer. The patient was treated with chemotherapy, local injection of breast mass and lymph nodes with high dose Vitamin C chemotherapy therapeutic agents. After completion of therapy, they were sent to surgery for the removal of the remaining lesion mass in the breast which had shrunk considerably, and axillary lymph node resection. They were seen 3 months after surgery. Their chest X ray was negative and so also sputum M. tuberculosis bacteria. They were free of cancer and tuberculosis.

[23] = test system: pathogenic organism's; details: cited from earlier work
[24] = at atmospheric pressure; cited from earlier work
[25] = test system: Mycobacterium tuberculosis bacteria in the monocytes; details: cited from earlier work
[26] = test system: Mycobacterium tuberculosis outside cells; details: cited from earlier work
[27] = biological target: proprotein convertase subtilisin-kexin type 9 (PCSK9) (Homo sapiens, UniProt Q8NBP7); details: parenteral administration; cited from earlier work
[28] = test system: M. tuberculosis; details: cited from earlier work
[29] = 150 mg/kg per day, one month of treatment

NC(=O)c1cnccn1 [pyrazinamide, Pyrazinamide]
reduction in the lung compared with the control [1, 29]: about 1.5 log10 cfu
reduction in the spleen compared with the control [1, 29]: ~2 log10 cfu
ADVERSE EVENT/CONTRAINDICATION [2]: Hepatitis

CC(C)Cc1ccc(C(C)C(=O)O)cc1 (stereo not drawn) [ibuprofen]
effect on tuberculosis infection [1]: little effect
TB lesion in the spleen compared with pyrazinamide alone [1]: further decrease
bacteria in the lungs compared with pyrazinamide alone [1]: lower unit counts
number of TB bacteria detected in the organs ([3]; mouse, in vivo): reduced the number of TB bacteria detected in the organs
survival ([3]; versus mice not treated with ibuprofen): lived longer

oxathiazol-2-one
effect on TB bacteria [4]: killed the TB bacteria
inhibition of the TB proteasome relative to the human proteasome [5]: about 1,000 times
harm to mammalian cells [6]: did not appear to harm mammalian cells

O=[N+]([O-])c1ccc(O)c([N+](=O)[O-])c1 [DNP, 2,4, dinitrophenol]
increase of the therapeutic window [7]: more than 500 fold

CC(=O)Oc1ccccc1C(=O)O [aspirin, Acetylsalicylic acid]
effect on tuberculosis infection [1]: little effect
TB lesion in the spleen compared with pyrazinamide alone [1]: further decrease
bacteria in the lungs compared with pyrazinamide alone [1]: statistically significant fewer bacteria

CO[C@H]1/C=C/O[C@@]2(C)Oc3c(C)c(O)c4c(O)c(c(/C=N/N5CCN(C)CC5)c(O)c4c3C2=O)NC(=O)/C(C)=C\C=C\[C@H](C)[C@H](O)[C@@H](C)[C@@H](O)[C@@H](C)[C@H](OC(C)=O)[C@@H]1C [Rifampin, Rifampicin]
concentration of the drug in the blood plasma ([8]; after increasing the dose): higher than expected
adverse effects ([8]; increased dose versus standard dose): did not experience adverse effects
ADVERSE EVENT/CONTRAINDICATION [2]: Hepatitis, GI reactions
Plasma Concentrations (mean±standard deviation) ([9]; IV 300 mg, 30 min): 8900 ± 2900 ng/mL
Plasma Concentrations (mean±standard deviation) ([9]; IV 300 mg, 1 hr to 2 hr): 4900 ± 1300 ng/mL
Plasma Concentrations (mean±standard deviation) ([9]; IV 300 mg, 4 hr): 2500 ± 1000 ng/mL
Plasma Concentrations (mean±standard deviation) ([9]; IV 300 mg, 8 hr): 1000 ± 600 ng/mL
Plasma Concentrations (mean±standard deviation) ([9]; IV 300 mg, 12 hr): <400 ng/mL
Plasma Concentrations (mean±standard deviation) ([9]; IV 600 mg, 30 min): 17400 ± 5100 ng/mL
Plasma Concentrations (mean±standard deviation) ([9]; IV 600 mg, 1 hr to 2 hr): 11700 ± 2800 ng/mL
Plasma Concentrations (mean±standard deviation) ([9]; IV 600 mg, 4 hr): 6400 ± 1700 ng/mL
Plasma Concentrations (mean±standard deviation) ([9]; IV 600 mg, 8 hr): 3500 ± 1400 ng/mL
Plasma Concentrations (mean±standard deviation) ([9]; IV 600 mg, 12 hr): 1200 ng/mL

CC(=O)Nc1ccc(/C=N/NC(N)=S)cc1 [Thiacetazone]
ADVERSE EVENT/CONTRAINDICATION [2]: Severe skin rash among HIV +ve (not recommended)

N[C@@H](CS)C(=O)O [cysteine]
intracellular levels of ferrous ions [10]: up to ten times higher

CC[C@@H](CO)NCCN[C@@H](CC)CO [Ethambutol]
adverse effects stated in the text [2]: risk of developing optic neuritis

C[C@@H]1CC[C@H]2[C@@H](C)C(=O)O[C@@H]3O[C@@]4(C)CC[C@@H]1[C@]32OO4 [artemisinin]
cancer cell killing ([11]; 8 hours): 75%
cancer cell killing ([11]; within 24 hours): ~100%
resistance and toxicity [12]: no resistance nor did toxicity

O=C1O[C@H]([C@@H](O)CO)C(O)=C1O [Vitamin C, L-ascorbic acid]
safety and tolerability [13]: safe and well-tolerated
extracellular free iron concentrations [14]: nearly four-fold higher
DNA damage relative to the untreated culture or culture treated with Vitamin E [15]: tenfold higher
ROS induced DNA damage [15]: 17-25%
endothelial dysfunction [16]: reversed endothelial dysfunction
peak plasma concentration ([17]; IV infusion up to 50 grams, cancer patients): 13.4 mM
peak plasma concentrations ([17]; maximum tolerated dose of 3 g every 4 hours taken orally): 0.22 mM
reduction in plasma C reactive protein (CRP) concentrations [18]: 24%
increase in total ROS [19]: Up to threefold
outcome of MRSA infection [20]: complete elimination of the infection
release of creatine kinase, an indicator of muscle damage [21]: inhibits the release of creatine kinase
outcome of tuberculosis ([22]; 10 to 25 grams IV every day, total of 10 doses): completely cured of tuberculosis
cough ([22]; by second week): completely disappeared
sputum for mycobacterium tuberculosis after culture ([22]; repeat sputum after treatment): negative
chest X ray ([22]; third week): disappearance of the lesion
intracellular levels of ferrous ions [10]: up to ten times higher

CCc1cc(C(N)=S)ccn1 [Ethionamide, 2-ethylthioiso-nicotinamide]
adverse effects stated in the text [2]: neurotoxicity and fatal hepatotoxicity

O=[O+][O-] [ozone]
molecules of chlorine equal to one molecule of ozone [23]: 3000-10,000 molecules
speed of killing pathogenic organisms ([23]; compared with chlorine): 3500 times faster
time to break down from O3 to O2+O1 [24]: ≤ 20 min

O=C1[C@H](CC[C@H](O)c2ccc(F)cc2)[C@@H](c2ccc(O)cc2)N1c1ccc(F)cc1 [Ezetimibe, (3R,4S)-1-(4-fluorophenyl)-3-[(3S)-3-(4-fluorophenyl)-3-hydroxypropyl]-4-(4-hydroxyphenyl) zetidin-2-one]
survival and proliferation of Mycobacterium tuberculosis in the monocytes [25]: significantly inhibiting the survival and proliferation
killing of Mycobacterium tuberculosis outside cells [26]: directly killing

B1: evolocumab: human monoclonal antibody that inhibits PCSK9 (antibody, chains of the INN, looked up, V domains shown)
VH: EVQLVQSGAEVKKPGASVKVSCKASGYTLTSYGISWVRQAPGQGLEWMGWVSFYNGNTNYAQKLQGRGTMTTDPSTSTAYMELRSLRSDDTAVYYCARGYGMDVWGQGTTVTVSS
VL: ESALTQPASVSGSPGQSITISCTGTSSDVGGYNSVSWYQQHPGKAPKLMIYEVSNRPSGVSNRFSGSKSGNTASLTISGLQAEDEADYYCNSYTSTSMVFGGGTKLTVL
reduction in LDL cholesterol levels [27]: 60%

B2: IFN-Y^− 1b: recombinant interferon gamma 1b, given nebulized (protein, UniProt P01579 24-161, looked up)
Interferon gamma: QDPYVKEAENLKKYFNAGHSDVADNGTLFLGILKNWKEESDRKIMQSQIVSFYFKLFKNFKDDQSIQKSVETIKEDMNVKFFNSNKKKRDDFEKLTNYSVTDLNVQRKAIHELIQVMAELSPAAKTGKRKRSQMLFRG
IFN gamma signaling ([28]; 10 TB patients, one month of nebulized therapy): enhanced IFN-Y^− signaling
clearance of M. tuberculosis bacteria from the sputum ([28]; nebulized, added to DOTS, randomized controlled trial): more rapid clearance
sputum ([28]; open-label, nebulized, 5 patients with MDR-TB, after 1 month): clearing of the sputum
